Like-named read-outs stand apart in the source and are kept apart here. Each block holds one compound with its values, some of them ahead of it.
Experiments:
CYP3A4 [1] = system: CYP3A4; design: method as in PMID 34072547; conditions: cited from earlier work
erosive esophagitis = system: erosive esophagitis; design: method as in PMID 36504556; conditions: 8-week treatment, patients with erosive esophagitis; cited from earlier work
[2] = design: method as in PMID 29863280, doi:10.1007/s11938-020-00330-x; conditions: no signs of hepatotoxicity; cited from earlier work
[3] = system: human, dog, monkey, mouse, and rat hepatocytes; experiment: In vitro metabolic profiling of JP-1366 in hepatocytes; format: in vitro ADME; conditions: 10 µM JP-1366, 60 min; H human, D dog, Mk monkey, M mouse, R rat
Experimental: Cryopreserved human, dog, monkey, mouse, and rat hepatocytes were purified and recovered according to the manufacturer’s protocol. […] The metabolic reaction in each sample well was quenched by adding 120 μL of ice-cold acetonitrile.
MS spectra were obtained in positive-ion mode using electrospray ionization under optimized conditions as follows: capillary temperature, 350 °C; sheath gas flow rate, 40 (arbitrary units); aux gas flow rate, 10 (arbitrary units); and aux gas heater temperature, 350 °C. Full MS scan with data-dependent MS/MS was performed from m/z 100 to m/z 1000.

[4] = target: T1, human cDNA-expressed CYP2C9 (Homo sapiens, UniProt P11712); experiment: Enzyme kinetics of JP-1366 metabolism in cDNA-expressed CYP2C9; format: in vitro ADME
T1 construct: purchased Corning Life Sciences
Experimental: (§1) The reaction was initiated by adding 5 μL of NADPH-generating system in triplicate, and the mixture was further incubated for 30 min at 37 °C in a shaking water bath.
(§2) The concentrations of the metabolites were quantitated, and their formation rates (pmol/mg protein/min) were calculated by dividing the amounts of metabolites formed from the incubation with human liver microsomes and human cDNA-expressed CYP or UGT enzymes by the incubation time.

[5] = target: T2, human cDNA-expressed CYP2C19 (Homo sapiens, UniProt P33261); experiment: Enzyme kinetics of JP-1366 metabolism in cDNA-expressed CYP2C19; format: in vitro ADME
T2 construct: purchased Corning Life Sciences
Experimental: as §1, §2

[6] = target: T3, human cDNA-expressed CYP2D6 (Homo sapiens, UniProt P10635); experiment: Enzyme kinetics of JP-1366 metabolism in cDNA-expressed CYP2D6; format: in vitro ADME
T3 construct: purchased Corning Life Sciences
Experimental: as §1, §2

[7] = target: T4, human cDNA-expressed CYP3A4 (Homo sapiens, UniProt P08684); experiment: Enzyme kinetics of JP-1366 metabolism in cDNA-expressed CYP3A4; format: in vitro ADME
T4 construct: purchased Corning Life Sciences
Experimental: as §1, §2

[8] = target: T5, human cDNA-expressed CYP3A5 (Homo sapiens, UniProt P20815); experiment: Enzyme kinetics of JP-1366 metabolism in cDNA-expressed CYP3A5; format: in vitro ADME
T5 construct: purchased Corning Life Sciences
Experimental: as §1, §2

[9] = system: human liver microsomes (HLM); experiment: Enzyme kinetics of JP-1366 metabolism in human liver microsomes; format: in vitro ADME; conditions: for Vmax: formation of the labelled metabolite from JP-1366, HLM
Experimental: as §1, §2

CYP3A4/5 = experiment: Combined contribution of CYP3A4/5 to formation of major JP-1366 metabolites; format: in vitro ADME, human; conditions: sum of CYP3A4 and CYP3A5 contributions
Experimental: as §1, §2

human liver microsomes = experiment: JP-1366 metabolism in human liver microsomes with NADPH, with or without SKF-525A; format: in vitro ADME
[10] = system: human liver microsomes (HLM); experiment: Enzyme kinetics of M1 glucuronidation to M15 in human liver microsomes; format: in vitro ADME; conditions: formation of M15 from M1, HLM
Experimental: (§3) By adding 5 μL of UDPGA (final concentration, 5 mM), the reaction was initiated, and the mixture was further incubated for 30 min at 37 °C in a shaking water bath. The reaction was terminated by adding 100 μL of ice-cold acetonitrile containing 5 ng/mL of lansoprazole (IS).
as §2

[11] = target: T6, human cDNA-expressed UGT2B7 (Homo sapiens, UniProt P16662); experiment: Enzyme kinetics of M1 glucuronidation to M15 in cDNA-expressed UGT2B7; format: in vitro ADME; conditions: formation of M15 from M1, UGT2B7
T6 construct: purchased Corning Life Sciences
Experimental: as §3, §2

[12] = target: T7, human cDNA-expressed UGT2B17 (Homo sapiens, UniProt O75795); experiment: Enzyme kinetics of M1 glucuronidation to M15 in cDNA-expressed UGT2B17; format: in vitro ADME; conditions: formation of M15 from M1, UGT2B17
T7 construct: purchased Corning Life Sciences
Experimental: as §3, §2

esterase = conditions: 5 μM JP-1366, human liver microsomes
Experimental: The experimental protocols were performed in accordance with FDA guidelines and the previous reports with slight modifications. […] The reactions were stopped by adding 100 μL of lansoprazole (IS) in ice-cold acetonitrile (100 ng/mL).

[13] = Apparent permeability in Caco-2 cells; format: in vitro ADME; conditions: human
Experimental: Caco-2 cells (passage no. 41–42) were grown in tissue culture flasks containing Dulbecco’s Modified Eagle Medium supplemented with 20% FBS, 1% nonessential amino acids, and 1% penicillin–streptomycin. […] The culture medium was replaced every other day. On the day of the experiment, the growth medium was discarded, and the attached cells were washed with prewarmed HBSS (pH 7.4) and preincubated with HBSS for 20 min at 37 °C. […] Aliquots (30 μL) of each sample were vortex-mixed with 90 μL of IS solution for 1 min, and then centrifugation was performed at 13,500 rpm at 4 °C for 5 min. Aliquots (5 μL) of the supernatant were injected into the LC-MS/MS for analysis.

[14] = cited from earlier work
gastric pH [15] = conditions: cited from earlier work; for % time pH > 4.0 over a period of 24 h: 40 mg dose group, healthy subjects
[16] = design: method as in PMID 16011666; conditions: cited from earlier work
porcine H^+/K^+-ATPase = target: porcine H^+/K^+-ATPase; design: method as in PMID 35745870, PMID 33355910; conditions: reversible inhibition; cited from earlier work
gastric pH [17] = system: gastric pH; design: method as in PMID 31437865; conditions: cited from earlier work
gastric pH [18] = system: gastric pH; design: method as in PMID 35146797; conditions: 50 mg of tegoprazan dose; cited from earlier work
CYP3A4 [19] = system: CYP3A4; design: method as in PMID 35745870; conditions: cited from earlier work
[20] = formation of the labelled metabolite from JP-1366, CYP2C9
[21] = formation of the labelled metabolite from JP-1366, CYP2C19
[22] = formation of the labelled metabolite from JP-1366, CYP2D6
[23] = formation of the labelled metabolite from JP-1366, CYP3A4
[24] = formation of the labelled metabolite from JP-1366, CYP3A5

T2 sequence (P33261 whole entry): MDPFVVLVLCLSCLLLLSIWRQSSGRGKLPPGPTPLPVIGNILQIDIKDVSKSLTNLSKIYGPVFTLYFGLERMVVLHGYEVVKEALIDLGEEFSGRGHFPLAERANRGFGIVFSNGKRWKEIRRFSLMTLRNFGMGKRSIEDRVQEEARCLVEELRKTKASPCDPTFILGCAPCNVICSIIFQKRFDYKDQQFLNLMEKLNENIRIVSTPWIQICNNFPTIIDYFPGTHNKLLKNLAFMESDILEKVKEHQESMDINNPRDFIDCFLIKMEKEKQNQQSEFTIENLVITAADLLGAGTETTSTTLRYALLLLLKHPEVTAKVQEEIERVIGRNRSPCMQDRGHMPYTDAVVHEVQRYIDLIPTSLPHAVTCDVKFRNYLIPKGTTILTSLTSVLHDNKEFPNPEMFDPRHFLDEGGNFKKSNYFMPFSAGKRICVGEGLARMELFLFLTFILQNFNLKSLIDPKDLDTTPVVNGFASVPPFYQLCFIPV
T3 sequence (P10635 whole entry): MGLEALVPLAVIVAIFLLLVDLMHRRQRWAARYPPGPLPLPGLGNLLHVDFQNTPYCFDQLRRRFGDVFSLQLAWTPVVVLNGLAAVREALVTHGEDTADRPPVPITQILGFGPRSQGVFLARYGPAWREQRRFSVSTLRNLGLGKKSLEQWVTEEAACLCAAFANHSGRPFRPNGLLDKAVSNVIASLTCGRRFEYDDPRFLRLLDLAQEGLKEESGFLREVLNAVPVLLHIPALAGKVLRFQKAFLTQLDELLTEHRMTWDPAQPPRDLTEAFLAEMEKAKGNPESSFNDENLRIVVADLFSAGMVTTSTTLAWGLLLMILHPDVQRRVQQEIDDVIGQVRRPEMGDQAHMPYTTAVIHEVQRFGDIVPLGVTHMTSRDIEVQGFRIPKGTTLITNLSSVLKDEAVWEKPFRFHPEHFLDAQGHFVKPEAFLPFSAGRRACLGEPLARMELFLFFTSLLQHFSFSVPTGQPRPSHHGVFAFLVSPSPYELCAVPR
T5 sequence (P20815 whole entry): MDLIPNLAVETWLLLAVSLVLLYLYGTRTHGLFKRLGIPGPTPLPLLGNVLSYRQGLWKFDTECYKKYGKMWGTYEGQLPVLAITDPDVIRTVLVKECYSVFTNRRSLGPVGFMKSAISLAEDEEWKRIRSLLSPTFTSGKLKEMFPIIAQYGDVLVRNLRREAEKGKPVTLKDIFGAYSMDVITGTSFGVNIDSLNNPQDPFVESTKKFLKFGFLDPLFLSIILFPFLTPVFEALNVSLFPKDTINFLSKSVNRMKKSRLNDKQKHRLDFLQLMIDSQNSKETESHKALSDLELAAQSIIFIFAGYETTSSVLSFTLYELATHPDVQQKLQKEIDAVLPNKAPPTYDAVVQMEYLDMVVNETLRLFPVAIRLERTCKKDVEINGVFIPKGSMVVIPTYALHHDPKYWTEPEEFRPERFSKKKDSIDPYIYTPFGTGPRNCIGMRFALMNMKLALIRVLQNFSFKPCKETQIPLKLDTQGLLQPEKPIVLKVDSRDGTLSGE
T4 sequence (P08684 whole entry): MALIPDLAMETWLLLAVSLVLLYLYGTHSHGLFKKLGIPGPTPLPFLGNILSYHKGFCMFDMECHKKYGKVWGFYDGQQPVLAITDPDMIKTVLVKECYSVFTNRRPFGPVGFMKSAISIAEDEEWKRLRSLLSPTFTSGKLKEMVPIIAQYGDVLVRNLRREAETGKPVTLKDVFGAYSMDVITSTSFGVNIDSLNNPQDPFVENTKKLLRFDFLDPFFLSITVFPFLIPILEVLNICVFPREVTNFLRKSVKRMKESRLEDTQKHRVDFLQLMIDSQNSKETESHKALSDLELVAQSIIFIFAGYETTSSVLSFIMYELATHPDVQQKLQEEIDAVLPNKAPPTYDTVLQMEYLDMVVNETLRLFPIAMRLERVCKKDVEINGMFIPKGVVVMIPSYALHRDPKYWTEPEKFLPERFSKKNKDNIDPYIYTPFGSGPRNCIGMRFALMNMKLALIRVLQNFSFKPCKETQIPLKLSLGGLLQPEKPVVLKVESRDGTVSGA
T1 sequence (P11712 whole entry): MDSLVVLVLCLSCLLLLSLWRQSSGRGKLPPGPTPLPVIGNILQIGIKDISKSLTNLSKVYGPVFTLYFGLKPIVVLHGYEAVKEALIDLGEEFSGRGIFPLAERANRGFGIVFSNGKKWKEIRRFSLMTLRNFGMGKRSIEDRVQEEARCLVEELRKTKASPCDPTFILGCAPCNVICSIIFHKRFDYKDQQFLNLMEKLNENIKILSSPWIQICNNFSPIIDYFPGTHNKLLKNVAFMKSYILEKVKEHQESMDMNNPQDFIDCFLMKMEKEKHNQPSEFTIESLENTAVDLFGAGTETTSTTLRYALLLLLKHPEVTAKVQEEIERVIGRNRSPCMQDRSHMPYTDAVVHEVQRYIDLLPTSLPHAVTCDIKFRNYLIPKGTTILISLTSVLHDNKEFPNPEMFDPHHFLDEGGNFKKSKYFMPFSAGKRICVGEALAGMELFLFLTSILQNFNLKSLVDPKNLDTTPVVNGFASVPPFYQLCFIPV
T7 sequence (O75795 24-530): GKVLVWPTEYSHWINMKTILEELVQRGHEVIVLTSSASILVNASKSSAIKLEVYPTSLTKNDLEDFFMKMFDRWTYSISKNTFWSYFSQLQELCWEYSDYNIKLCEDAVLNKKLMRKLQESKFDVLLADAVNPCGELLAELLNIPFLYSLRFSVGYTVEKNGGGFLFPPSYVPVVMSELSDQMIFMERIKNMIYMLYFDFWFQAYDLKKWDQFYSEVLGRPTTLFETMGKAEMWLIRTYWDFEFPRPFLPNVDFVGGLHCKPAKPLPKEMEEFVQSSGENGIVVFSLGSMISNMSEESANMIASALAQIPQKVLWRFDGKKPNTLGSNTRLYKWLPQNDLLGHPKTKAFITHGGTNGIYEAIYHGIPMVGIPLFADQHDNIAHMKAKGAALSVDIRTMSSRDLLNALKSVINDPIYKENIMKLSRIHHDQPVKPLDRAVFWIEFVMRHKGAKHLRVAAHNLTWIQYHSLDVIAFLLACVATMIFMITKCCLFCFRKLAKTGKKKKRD
T6 sequence (P16662 24-529): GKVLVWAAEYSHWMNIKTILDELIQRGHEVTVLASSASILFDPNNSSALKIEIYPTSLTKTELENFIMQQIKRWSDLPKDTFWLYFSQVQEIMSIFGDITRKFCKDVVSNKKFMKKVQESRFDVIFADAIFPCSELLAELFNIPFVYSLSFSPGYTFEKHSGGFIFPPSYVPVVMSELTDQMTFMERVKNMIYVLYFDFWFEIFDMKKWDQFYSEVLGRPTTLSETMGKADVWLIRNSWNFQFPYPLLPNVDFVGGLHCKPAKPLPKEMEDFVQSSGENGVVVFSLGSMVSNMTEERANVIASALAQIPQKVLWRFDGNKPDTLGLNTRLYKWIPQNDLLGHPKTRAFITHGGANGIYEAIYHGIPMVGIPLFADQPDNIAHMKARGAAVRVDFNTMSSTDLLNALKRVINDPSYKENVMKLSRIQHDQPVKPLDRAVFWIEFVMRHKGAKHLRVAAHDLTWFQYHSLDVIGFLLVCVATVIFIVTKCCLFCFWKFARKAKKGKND

SMILES: CNCc1cn(S(=O)(=O)c2cccc(F)c2)c(-c2ccc(F)cc2F)c1OC [Fexuprazan]
contribution of CYP3A4 to formation of M11 (hydroxylation) (CYP3A4 [1]): > 60% | contribution of CYP3A4 to formation of M14 (oxidative deamination) (CYP3A4 [1]): more than 80% | erosive esophagitis healing versus esomeprazole 40 mg (erosive esophagitis): non-inferior | tolerability [2]: well tolerated

Hepatocytes (species in which the metabolite was found) [3]: H, D, Mk, M, R | CLint [4, 20]: 0.0070 μL/min/pmol CYP | n (Hill coefficient) [4, 20]: 0.7 | Contribution (%) ([4]; relative contribution of CYP2C9 to formation of the labelled metabolite): 2.8% | CLint [5, 21]: 0.0023 μL/min/pmol CYP | n (Hill coefficient) [5, 21]: 0.6 | Contribution (%) ([5]; relative contribution of CYP2C19 to formation of the labelled metabolite): 0.1% | CLint [6, 22]: 0.0015 μL/min/pmol CYP | n (Hill coefficient) [6, 22]: 0.7 | Contribution (%) ([6]; relative contribution of CYP2D6 to formation of the labelled metabolite): 0.1% | CLint [7, 23]: 0.77 μL/min/pmol CYP | n (Hill coefficient) [7, 23]: 1.8 | Contribution (%) ([7]; relative contribution of CYP3A4 to formation of the labelled metabolite): 28.1% | CLint [8, 24]: 0.41 μL/min/pmol CYP | n (Hill coefficient) [8, 24]: 1.5 | Contribution (%) ([8]; relative contribution of CYP3A5 to formation of the labelled metabolite): 68.9% | Vmax [9]: 798.8 pmol/min/mg protein | Ki ([9]; substrate inhibition kinetics, formation of the labelled metabolite, HLM): 105 µM | contribution of CYP3A4/5 to formation of the metabolite from JP-1366 (CYP3A4/5): 97.0%
SMILES: Cc1nc2c(N)cc(C(=O)N3CCC3)cn2c1C [M6, (8-amino-2,3-dimethylimidazo[1,2-a]pyridin-6-yl)(azetidin-1-yl)methanone]

Hepatocytes (species in which the metabolite was found) [3]: H, D, Mk, M, R | detection of metabolite after incubation of JP-1366 in human liver microsomes with NADPH (human liver microsomes; 5 μM JP-1366): not detected | CLint [10]: 1.29 μL/min/mg Protein | Vmax [10]: 74.9 pmol/min/mg Protein | n (Hill coefficient) [10]: 1.0 | CLint [11]: 0.60 μL/min/mg Protein | n (Hill coefficient) [11]: 0.8 | CLint [12]: 1.27 μL/min/mg Protein | Ki ([12]; substrate inhibition): 59 µM
SMILES: Cc1cccc(COC2OC(C(=O)O)C(O)C(O)C2O)c1CNc1cc(C(=O)N2CCC2)cn2c(C)c(C)nc12 (centres unmarked) [M15]

Hepatocytes (species in which the metabolite was found) [3]: H, D, M, R | Vmax [9]: 23.2 pmol/min/mg protein
SMILES: Cc1cccc(C)c1CNc1cc(C(=O)O)cn2c(C)c(C)nc12 [M23, 8-((2,6-dimethylbenzyl)amino)-2,3-dimethylimidazo[1,2-a]pyridine-6-carboxylic acid]

SMILES: [F-].[Na+] [NaF]
inhibition of formation of M23 from JP-1366 (esterase; 100 μM NaF): 18.9% ± 3.9% | inhibition of formation of M23 from JP-1366 (esterase; 1000 μM NaF): 73.3% ± 0.3%

Papp A→B at 1 h, 4 µM ([13]; Caco-2, pH 7.4): 9.75 ± 0.68 ×10⁻⁶ cm/s | Papp B→A at 1 h, 4 µM ([13]; Caco-2, pH 7.4): 12.2 ± 1.51 ×10⁻⁶ cm/s | efflux ratio at 1 h, 4 µM ([13]; pH 7.4, Caco-2, mean Papp,BA / mean Papp,AB, read-out: ER): 1.3
SMILES: CC(C)NCC(O)COc1cccc2ccccc12 (centres unmarked) [Propranolol, reference compound]

SMILES: CCCC(C(=O)OCCN(CC)CC)(c1ccccc1)c1ccccc1 [SKF-525A, reference compound]
effect on formation of M23 from JP-1366 (human liver microsomes; SKF-525A 10 μM and 100 μM, human liver microsomes): not inhibited

SMILES: CNCc1cc(-c2ccccc2F)n(S(=O)(=O)c2cccnc2)c1 [Vonoprazan]
pKa [14]: 9.37

SMILES: COc1ccc2nc([S@@+]([O-])Cc3ncc(C)c(OC)c3C)[nH]c2c1 [esomeprazole, reference compound]
% time pH > 4.0 over a period of 24 h (gastric pH [15]; MAD): 56.56% ± 22.47% | % time pH > 4.0 over a period of 24 h (gastric pH [15]; SAD): 72.06% ± 13.43% | % time pH > 4 at nighttime (gastric pH [15]; repeated 40 mg dose): 56.56% ± 22.47%

SMILES: COc1ccc2[nH]c([S+]([O-])Cc3ncc(C)c(OC)c3C)nc2c1 (centres unmarked) [omeprazole]
plasma exposure in poor metabolizers with a CYP2C19 mutation [16]: five-fold higher

SMILES: Cc1nc2cc(C(=O)N(C)C)cc(O[C@H]3CCOc4cc(F)cc(F)c43)c2[nH]1 [tegoprazan]
IC50 (porcine H^+/K^+-ATPase): 0.53 µM | Cmax (gastric pH [17]; 100 mg once daily, day 1): 1413 ± 24.7 ng/mL | Cmax (gastric pH [17]; 100 mg once daily, day 7): 845.2 ± 40.7 ng/mL | decrease of Cmax after repeated administration compared with a single dose (gastric pH [17]; 100 mg once daily): 40% | % time pH > 4 over a 24 h period (gastric pH [17]; repeated oral dose of 100 mg): 70.4% | % time pH > 4 over a 24 h period (gastric pH [17]; single oral dose of 50 mg, six healthy subjects): 48.9% | % time pH > 4 over a 24 h period (gastric pH [18]): 66.0 ± 15.7% | contribution of CYP3A4 to metabolism to active metabolite M1 (CYP3A4 [19]): about 75%
